No end group written: not given here.
How the values were obtained:
[1] = target: human GLP1R (Homo sapiens, UniProt P43220); assay: CRE-luc luciferase assay in GLP1R and CRE-luc cotransfected HEK293T cells; assay type: cell-based
[2] = target: DPP-IV activity of fetal bovine serum (Bos taurus, UniProt P81425); assay: Stability in 100% FBS, residual activity by GLP1R/CRE-luc luciferase assay; assay type: in vitro ADME; conditions: FBS incubation, 37℃
Sequence of DPP-IV activity of fetal bovine serum (P81425 38-765 limits assumed): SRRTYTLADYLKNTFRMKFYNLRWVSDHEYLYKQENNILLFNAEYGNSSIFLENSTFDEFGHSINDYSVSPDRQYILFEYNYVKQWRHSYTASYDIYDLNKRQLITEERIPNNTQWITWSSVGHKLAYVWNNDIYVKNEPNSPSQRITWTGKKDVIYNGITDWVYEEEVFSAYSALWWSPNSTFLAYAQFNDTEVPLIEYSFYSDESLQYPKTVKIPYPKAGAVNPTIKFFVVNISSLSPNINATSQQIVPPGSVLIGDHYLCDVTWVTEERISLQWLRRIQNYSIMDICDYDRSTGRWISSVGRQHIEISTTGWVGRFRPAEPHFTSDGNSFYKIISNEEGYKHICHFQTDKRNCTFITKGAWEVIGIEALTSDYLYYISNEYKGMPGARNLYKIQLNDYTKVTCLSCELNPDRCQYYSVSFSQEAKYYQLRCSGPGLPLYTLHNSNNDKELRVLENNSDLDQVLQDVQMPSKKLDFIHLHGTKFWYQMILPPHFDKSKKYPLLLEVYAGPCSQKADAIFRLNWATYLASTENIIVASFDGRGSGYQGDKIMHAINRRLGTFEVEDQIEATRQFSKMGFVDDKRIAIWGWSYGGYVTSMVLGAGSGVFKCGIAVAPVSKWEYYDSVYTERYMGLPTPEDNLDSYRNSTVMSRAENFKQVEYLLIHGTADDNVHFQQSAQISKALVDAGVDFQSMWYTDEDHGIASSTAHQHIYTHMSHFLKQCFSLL

Sequence of human GLP1R (P43220 24-463): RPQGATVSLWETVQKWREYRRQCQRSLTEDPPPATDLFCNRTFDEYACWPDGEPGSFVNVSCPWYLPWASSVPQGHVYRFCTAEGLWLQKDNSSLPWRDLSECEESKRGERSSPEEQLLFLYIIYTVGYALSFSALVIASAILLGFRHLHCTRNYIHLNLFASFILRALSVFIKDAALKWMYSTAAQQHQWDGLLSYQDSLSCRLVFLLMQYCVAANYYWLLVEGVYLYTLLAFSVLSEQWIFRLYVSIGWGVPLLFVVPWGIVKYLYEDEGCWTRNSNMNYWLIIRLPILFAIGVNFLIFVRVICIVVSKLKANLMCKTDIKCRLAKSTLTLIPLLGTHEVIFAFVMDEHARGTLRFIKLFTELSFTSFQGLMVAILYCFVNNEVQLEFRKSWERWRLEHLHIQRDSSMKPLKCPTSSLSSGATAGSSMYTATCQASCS

| Substance | EC50 [1] | stability in serum (overall comparison, words) [2] |
| --- | --- | --- |
| HSEGTFTNDMTNYLEEKAAKEFVGWLIKGGPSSGAPPPS [xGLP-E4] | 0.155 nM | more stable in serum than wild-type human and xGLP |
| HAEGTFTNDMTNYLEEKAAKEFVGWLIKGR-NH2 [xGLP, Xenopus GLP-1, reference compound] | 0.832 nM |  |

From paper PMC4192806 (Endocrinology and Metabolism, 2014)
